PMC6331819, “Identification of N-Acetyldopamine Dimers from the Dung Beetle Catharsius molossus and Their COX-1 and COX-2 Inhibitory Activities” (Molecules, 2015)

Columns and labels:
COX-2 = target: T1, COX-2 (Homo sapiens, UniProt P35354); assay: Cayman COX Fluorescent Inhibitor Screening Assay Kit; format: biochemical
T1 construct: gene PTGS2
T1 sequence (P35354 18-604): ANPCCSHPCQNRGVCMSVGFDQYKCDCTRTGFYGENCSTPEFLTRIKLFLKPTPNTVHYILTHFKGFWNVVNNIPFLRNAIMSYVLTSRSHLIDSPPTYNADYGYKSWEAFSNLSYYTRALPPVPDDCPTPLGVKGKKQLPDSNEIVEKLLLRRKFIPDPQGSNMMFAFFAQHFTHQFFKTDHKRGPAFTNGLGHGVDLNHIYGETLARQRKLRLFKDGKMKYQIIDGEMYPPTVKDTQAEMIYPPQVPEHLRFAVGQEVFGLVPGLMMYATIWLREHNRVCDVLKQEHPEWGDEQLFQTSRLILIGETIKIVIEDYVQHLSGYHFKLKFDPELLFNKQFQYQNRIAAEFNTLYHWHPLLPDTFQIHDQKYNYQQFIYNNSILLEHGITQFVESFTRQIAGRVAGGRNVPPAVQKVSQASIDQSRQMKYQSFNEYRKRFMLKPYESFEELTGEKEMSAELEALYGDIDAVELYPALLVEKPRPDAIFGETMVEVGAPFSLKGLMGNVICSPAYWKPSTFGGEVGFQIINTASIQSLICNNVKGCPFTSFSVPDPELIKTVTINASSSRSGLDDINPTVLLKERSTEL

COX-1 = target: T2, COX-1 (Ovis aries, UniProt P05979); assay: as above; format: biochemical
T2 construct: gene PTGS1
T2 sequence (P05979 25-600): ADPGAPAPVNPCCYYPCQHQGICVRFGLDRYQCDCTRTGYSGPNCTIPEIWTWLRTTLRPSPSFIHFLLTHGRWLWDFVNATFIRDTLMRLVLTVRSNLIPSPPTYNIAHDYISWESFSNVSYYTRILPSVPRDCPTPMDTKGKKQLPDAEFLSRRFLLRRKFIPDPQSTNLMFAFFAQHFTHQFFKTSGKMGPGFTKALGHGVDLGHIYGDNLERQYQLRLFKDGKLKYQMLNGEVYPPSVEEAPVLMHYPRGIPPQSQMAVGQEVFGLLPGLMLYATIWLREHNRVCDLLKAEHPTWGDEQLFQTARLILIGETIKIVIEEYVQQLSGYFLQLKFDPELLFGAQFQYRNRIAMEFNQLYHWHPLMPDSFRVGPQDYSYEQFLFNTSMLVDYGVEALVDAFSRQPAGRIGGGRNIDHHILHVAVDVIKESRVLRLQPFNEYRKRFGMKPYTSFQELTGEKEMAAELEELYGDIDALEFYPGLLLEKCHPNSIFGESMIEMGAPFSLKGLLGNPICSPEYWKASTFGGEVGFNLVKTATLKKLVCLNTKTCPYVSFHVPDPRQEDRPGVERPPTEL

CC(=O)N/C=C/c1ccc2c(c1)O[C@H](c1ccc(O)c(O)c1)[C@H](NC(C)=O)O2 (racemic) [compound 4, cis-2-(3′,4′-dihydroxyphenyl)-3-acetylamino-7-(N-acetyl-2″-amino-ethylene)-1,4-benzodioxane]
IC50 (COX-2): 6.43 µM
IC50 (COX-1): 78.8 µM
